Measurements: patent publication US9833497B2, “Human originated EGF domain proteins and use of the same” (CHENGDU SOURCEBIO LIMITED-LIABILITY COMPANY, priority 2013, dated 2017)

Key:
Assay type in all cases: cell-based
Moraxella catarrhalis = assay: MIC against Gram-negative bacteria: Moraxella catarrhalis
Outline: (§1)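 Antibacterial activity of purified human EGF domain proteins: two-fold concentration series, triplicate wells, LB broth, 5×10^5 CFU/mL bacteria, 37° C shaking incubation. The lowest concentration without growth defines the MIC.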

Proteus mirabilis = assay: MIC against Gram-negative bacteria: Proteus mirabilis
Outline: as §1

E. coli BL21 = assay: MIC against Gram-negative bacteria: E. coli BL21
Outline: as §1

Pseudomonas aeruginosa = assay: MIC against Gram-negative bacteria: Pseudomonas aeruginosa
Outline: as §1

Aeromonas hydrophila = assay: MIC against Gram-negative bacteria: Aeromonas hydrophila
Outline: as §1

Citrobacter diversus = assay: MIC against Gram-negative bacteria: Citrobacter diversus
Outline: as §1

Enterobacter cloacae = assay: MIC against Gram-negative bacteria: Enterobacter cloacae
Outline: as §1

Serratia marcescens = assay: MIC against Gram-negative bacteria: Serratia marcescens
Outline: as §1

E. coli DH5α = assay: Antibacterial activity: MIC and growth curve against E. coli DH5α in 96-well plate; details: minimal inhibitory concentration against E. coli DH5α; 96-well plate, 5×10^5 CFU/mL, 37° C., judged after 8 h
Outline: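 Log-phase DH5α (OD600 about 0.5, 37° C, 185 rpm in LB) was pelleted, resuspended in fresh LB and seeded at 5×10^5 CFU/mL with recombinant protein at 50, 25 and 12.5 μg/mL (two-fold series), in triplicate. Plates were shaken at 175 rpm, 37° C, and OD600 was read every 30 min. MIC was the lowest concentration with no growth.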

Proteus vulgaris = assay: MIC against Gram-negative bacteria: Proteus vulgaris
Outline: as §1

Klebsiella pneumonia = assay: MIC against Gram-negative bacteria: Klebsiella pneumonia
Outline: as §1

[1] = 10 h cultivation at 37° C., 5×10^5 CFU/mL, two-fold serial dilution
[2] = 96-well plate, 5×10^5 CFU/mL, 37° C., 10 h
[3] = M. catarrhalis, 10 h cultivation at 37° C.
[4] = P. mirabilis, 10 h cultivation at 37° C.
[5] = E. coli BL21, 10 h cultivation at 37° C.
[6] = P. aeruginosa, 10 h cultivation at 37° C.
[7] = A. hydrophila, 10 h cultivation at 37° C.
[8] = C. diversus, 10 h cultivation at 37° C.
[9] = E. cloacae, 10 h cultivation at 37° C.
[10] = S. marcescens, 10 h cultivation at 37° C.
[11] = P. vulgaris, 10 h cultivation at 37° C.
[12] = K. pneumonia, 10 h cultivation at 37° C.
[13] = Moraxella catarrhalis, 5×10^5 CFU/mL, 10 h cultivation at 37° C.
[14] = Proteus mirabilis, 5×10^5 CFU/mL, 10 h cultivation at 37° C.
[15] = E. coli BL21, 5×10^5 CFU/mL, 10 h cultivation at 37° C.
[16] = Pseudomonas aeruginosa, 5×10^5 CFU/mL, 10 h cultivation at 37° C.
[17] = Aeromonas hydrophila, 5×10^5 CFU/mL, 10 h cultivation at 37° C.
[18] = Citrobacter diversus, 5×10^5 CFU/mL, 10 h cultivation at 37° C.
[19] = Enterobacter cloacae, 5×10^5 CFU/mL, 10 h cultivation at 37° C.
[20] = Serratia marcescens, 5×10^5 CFU/mL, 10 h cultivation at 37° C.
[21] = Proteus vulgaris, 5×10^5 CFU/mL, 10 h cultivation at 37° C.
[22] = Klebsiella pneumonia, 5×10^5 CFU/mL, 10 h cultivation at 37° C.

Substance: PRT1176 (NIDDCSPNNCSHGGTCQDLVNGFKCVCPPQWTGKTCQ; listed as Homo sapiens)
- MIC M. catarrhalis (Moraxella catarrhalis; [1]): 12.5 µg/mL
- MIC P. mirabilis (Proteus mirabilis; [1]): 50 µg/mL
- MIC E. coli BL21 (E. coli BL21; [1]): 50 µg/mL
- MIC P. aeruginosa (Pseudomonas aeruginosa; [1]): 12.5 µg/mL
- MIC A. hydrophila (Aeromonas hydrophila; [1]): 25 µg/mL
- MIC C. diversus (Citrobacter diversus; [1]): 50 µg/mL
- MIC E. cloacae (Enterobacter cloacae; [1]): 12.5 µg/mL
- MIC S. marcescens (Serratia marcescens; [1]): 12.5 µg/mL
- MIC (E. coli DH5α): 12.5 µg/mL
- MIC P. vulgaris (Proteus vulgaris; [1]): 25 µg/mL
- MIC K. pneumonia (Klebsiella pneumonia; [1]): 50 µg/mL

Substance: PRT519 (CQCNDNLDFSIPGSCDSLSGSCLICKPGTTGRYCELCADGYFGDAVDAKNCQP; listed as Homo sapiens)
- MIC against M. catarrhalis (Moraxella catarrhalis; [2]): 25 µg/mL
- MIC against P. mirabilis (Proteus mirabilis; [2]): 12.5 µg/mL
- MIC against E. coli BL21 (E. coli BL21; [2]): 12.5 µg/mL
- MIC against P. aeruginosa (Pseudomonas aeruginosa; [2]): 12.5 µg/mL
- MIC against A. hydrophila (Aeromonas hydrophila; [2]): 25 µg/mL
- MIC against C. diversus (Citrobacter diversus; [2]): 12.5 µg/mL
- MIC against E. cloacae (Enterobacter cloacae; [2]): 12.5 µg/mL
- MIC against S. marcescens (Serratia marcescens; [2]): 12.5 µg/mL
- MIC (E. coli DH5α): 25 µg/mL
- MIC against P. vulgaris (Proteus vulgaris; [2]): 25 µg/mL
- MIC against K. pneumonia (Klebsiella pneumonia; [2]): 25 µg/mL

Substance: PRT976 (IGVRLEQLCQAGGQCVDEDSSHYCVCPEGRTGSHCE; listed as Homo sapiens)
- MIC (Moraxella catarrhalis; [3]): 25 µg/mL
- MIC (Proteus mirabilis; [4]): 50 µg/mL
- MIC (E. coli BL21; [5]): 12.5 µg/mL
- MIC (Pseudomonas aeruginosa; [6]): 50 µg/mL
- MIC (Aeromonas hydrophila; [7]): 12.5 µg/mL
- MIC (Citrobacter diversus; [8]): 25 µg/mL
- MIC (Enterobacter cloacae; [9]): 50 µg/mL
- MIC (Serratia marcescens; [10]): 25 µg/mL
- MIC (E. coli DH5α): 50 µg/mL
- MIC (Proteus vulgaris; [11]): 25 µg/mL
- MIC (Klebsiella pneumonia; [12]): 12.5 µg/mL

Substance: PRT1482 (LCSFGCGSGICIAPNVCSCQDGEQGATCP; listed as Homo sapiens)
- MIC against M. catarrhalis (Moraxella catarrhalis; [13]): 25 µg/mL
- MIC against P. mirabilis (Proteus mirabilis; [14]): 50 µg/mL
- MIC against E. coli BL21 (E. coli BL21; [15]): 50 µg/mL
- MIC against P. aeruginosa (Pseudomonas aeruginosa; [16]): 12.5 µg/mL
- MIC against A. hydrophila (Aeromonas hydrophila; [17]): 50 µg/mL
- MIC against C. diversus (Citrobacter diversus; [18]): 12.5 µg/mL
- MIC against E. cloacae (Enterobacter cloacae; [19]): 12.5 µg/mL
- MIC against S. marcescens (Serratia marcescens; [20]): 25 µg/mL
- MIC (E. coli DH5α): 12.5 µg/mL
- MIC against P. vulgaris (Proteus vulgaris; [21]): 25 µg/mL
- MIC against K. pneumonia (Klebsiella pneumonia; [22]): 50 µg/mL

Substance: PRT153 (DCLACQGGSQRPCSGNGHCSGDGSRQGDGSCRCHMGYQGPLCT; listed as Homo sapiens)
- MIC (μg/mL) M. catarrhalis (Moraxella catarrhalis; M. catarrhalis, 10 h cultivation at 37° C., 5×10^5 CFU/mL): 12.5 µg/mL
- MIC (μg/mL) P. mirabilis (Proteus mirabilis; P. mirabilis, 10 h cultivation at 37° C., 5×10^5 CFU/mL): 50 µg/mL
- MIC (μg/mL) E. coli BL21 (E. coli BL21; E. coli BL21, 10 h cultivation at 37° C., 5×10^5 CFU/mL): 100 µg/mL
- MIC (μg/mL) P. aeruginosa (Pseudomonas aeruginosa; P. aeruginosa, 10 h cultivation at 37° C., 5×10^5 CFU/mL): 50 µg/mL
- MIC (μg/mL) A. hydrophila (Aeromonas hydrophila; A. hydrophila, 10 h cultivation at 37° C., 5×10^5 CFU/mL): 50 µg/mL
- MIC (μg/mL) C. diversus (Citrobacter diversus; C. diversus, 10 h cultivation at 37° C., 5×10^5 CFU/mL): 25 µg/mL
- MIC (μg/mL) E. cloacae (Enterobacter cloacae; E. cloacae, 10 h cultivation at 37° C., 5×10^5 CFU/mL): 25 µg/mL
- MIC (μg/mL) S. marcescens (Serratia marcescens; S. marcescens, 10 h cultivation at 37° C., 5×10^5 CFU/mL): 50 µg/mL
- MIC (E. coli DH5α): 12.5 µg/mL
- MIC (μg/mL) P. vulgaris (Proteus vulgaris; P. vulgaris, 10 h cultivation at 37° C., 5×10^5 CFU/mL): 12.5 µg/mL
- MIC (μg/mL) K. pneumonia (Klebsiella pneumonia; K. pneumonia, 10 h cultivation at 37° C., 5×10^5 CFU/mL): 12.5 µg/mL

Substance: PRT671 (RVVVCPLPCMNGGQCSSRNQCLCPPDFTGRFCQ; listed as Homo sapiens)
- MIC M. catarrhalis (Moraxella catarrhalis; [2]): 25 µg/mL
- MIC P. mirabilis (Proteus mirabilis; [2]): 12.5 µg/mL
- MIC E. coli BL21 (E. coli BL21; [2]): 12.5 µg/mL
- MIC P. aeruginosa (Pseudomonas aeruginosa; [2]): 12.5 µg/mL
- MIC A. hydrophila (Aeromonas hydrophila; [2]): 25 µg/mL
- MIC C. diversus (Citrobacter diversus; [2]): 12.5 µg/mL
- MIC E. cloacae (Enterobacter cloacae; [2]): 12.5 µg/mL
- MIC S. marcescens (Serratia marcescens; [2]): 12.5 µg/mL
- MIC (E. coli DH5α): 50 µg/mL
- MIC P. vulgaris (Proteus vulgaris; [2]): 25 µg/mL
- MIC K. pneumonia (Klebsiella pneumonia; [2]): 12.5 µg/mL

Substance: PRT1016 (RAGPCPPRGCSNGGTCQLMPEKDSTFHLCLCPPGFIGPDCE; listed as Homo sapiens)
- MIC (Moraxella catarrhalis; [3]): 100 µg/mL
- MIC (Proteus mirabilis; [4]): 50 µg/mL
- MIC (E. coli BL21; [5]): 25 µg/mL
- MIC (Pseudomonas aeruginosa; [6]): 50 µg/mL
- MIC (Aeromonas hydrophila; [7]): 25 µg/mL
- MIC (Citrobacter diversus; [8]): 50 µg/mL
- MIC (Enterobacter cloacae; [9]): 12.5 µg/mL
- MIC (Serratia marcescens; [10]): 12.5 µg/mL
- MIC (E. coli DH5α): 12.5 µg/mL
- MIC (Proteus vulgaris; [11]): 25 µg/mL
- MIC (Klebsiella pneumonia; [12]): 25 µg/mL

Substance: PRT1413 (PTNQCIDVACSNHGTCITGTCICNPGYKGESCE; listed as Homo sapiens)
- MIC against M. catarrhalis (Moraxella catarrhalis; [13]): 12.5 µg/mL
- MIC against P. mirabilis (Proteus mirabilis; [14]): 50 µg/mL
- MIC against E. coli BL21 (E. coli BL21; [15]): 25 µg/mL
- MIC against P. aeruginosa (Pseudomonas aeruginosa; [16]): 50 µg/mL
- MIC against A. hydrophila (Aeromonas hydrophila; [17]): 25 µg/mL
- MIC against C. diversus (Citrobacter diversus; [18]): 50 µg/mL
- MIC against E. cloacae (Enterobacter cloacae; [19]): 12.5 µg/mL
- MIC against S. marcescens (Serratia marcescens; [20]): 12.5 µg/mL
- MIC (E. coli DH5α): 12.5 µg/mL
- MIC against P. vulgaris (Proteus vulgaris; [21]): 25 µg/mL
- MIC against K. pneumonia (Klebsiella pneumonia; [22]): 25 µg/mL

Substance: PRT577 (CACHPSRARGPTCNEFTGQCHCRAGFGGRTCSECQELHWGDPGLQCHA; listed as Homo sapiens)
- MIC against M. catarrhalis (Moraxella catarrhalis; [2]): 12.5 µg/mL
- MIC against P. mirabilis (Proteus mirabilis; [2]): 50 µg/mL
- MIC against E. coli BL21 (E. coli BL21; [2]): 25 µg/mL
- MIC against P. aeruginosa (Pseudomonas aeruginosa; [2]): 50 µg/mL
- MIC against A. hydrophila (Aeromonas hydrophila; [2]): 25 µg/mL
- MIC against C. diversus (Citrobacter diversus; [2]): 50 µg/mL
- MIC against E. cloacae (Enterobacter cloacae; [2]): 12.5 µg/mL
- MIC against S. marcescens (Serratia marcescens; [2]): 50 µg/mL
- MIC (E. coli DH5α): 12.5 µg/mL
- MIC against P. vulgaris (Proteus vulgaris; [2]): 12.5 µg/mL
- MIC against K. pneumonia (Klebsiella pneumonia; [2]): 25 µg/mL

Substance: PRT674 (DVDECQDPAACRPGRCVNLPGSYRCECRPPWVPGPSGRDCQ; listed as Homo sapiens)
- MIC M. catarrhalis (Moraxella catarrhalis; [2]): 25 µg/mL
- MIC P. mirabilis (Proteus mirabilis; [2]): 12.5 µg/mL
- MIC E. coli BL21 (E. coli BL21; [2]): 25 µg/mL
- MIC P. aeruginosa (Pseudomonas aeruginosa; [2]): 50 µg/mL
- MIC A. hydrophila (Aeromonas hydrophila; [2]): 50 µg/mL
- MIC C. diversus (Citrobacter diversus; [2]): 25 µg/mL
- MIC E. cloacae (Enterobacter cloacae; [2]): 12.5 µg/mL
- MIC S. marcescens (Serratia marcescens; [2]): 25 µg/mL
- MIC (E. coli DH5α): 12.5 µg/mL
- MIC P. vulgaris (Proteus vulgaris; [2]): 50 µg/mL
- MIC K. pneumonia (Klebsiella pneumonia; [2]): 25 µg/mL

Substance: PRT988 (DVDECQLQPNACHNGGTCFNTLGGHSCVCVNGWTGESCS; listed as Homo sapiens)
- MIC (Moraxella catarrhalis; [3]): 50 µg/mL
- MIC (Proteus mirabilis; [4]): 12.5 µg/mL
- MIC (E. coli BL21; [5]): 50 µg/mL
- MIC (Pseudomonas aeruginosa; [6]): 12.5 µg/mL
- MIC (Aeromonas hydrophila; [7]): 50 µg/mL
- MIC (Citrobacter diversus; [8]): 12.5 µg/mL
- MIC (Enterobacter cloacae; [9]): 12.5 µg/mL
- MIC (Serratia marcescens; [10]): 12.5 µg/mL
- MIC (E. coli DH5α): 12.5 µg/mL
- MIC (Proteus vulgaris; [11]): 50 µg/mL
- MIC (Klebsiella pneumonia; [12]): 50 µg/mL
